One block for each compound: values may come before it.
Assays:
[1] = test system: HT29 (human colon adenocarcinoma); test: MTT assay, cell viability; format: cell-based; details: HT-29, after 48 h of treatment, n.a. = non active
Excerpt: (§1) Cell lines included in the evaluation of toxicity profiles were malignant U2OS, HT29, PC3, and IGROV1, and a normal human adult fibroblast cell line HDFa.
(§2) The human prostate cancer (PC3), human colon cancer (HT29), human bone osteosarcoma (U2OS), and normal human adult fibroblast (HDFa) cell lines were purchased from American Type Culture Collection (ATCC, Manassas, VA, USA), while the human ovarian cancer cell line (IGROV1) was kindly provided by Istituto Nazionale Tumori (IRCCS, Milano, Italy). Cells were cultured in Roswell Park Memorial Institute (RPMI)-1640 medium (Labtek Eurobio, Milan, Italy), supplemented with 10% fetal calf serum (FCS; Euroclone, Milano, Italy) and 2mM L-glutamine (Sigma-Aldrich, Milano, Italy), at 37 °C and 5% CO2 atmosphere. The compounds were dissolved in dimethyl sulfoxide (DMSO) in a 60 mM stock solution. In cell treatments, the final DMSO concentration never exceeded 0.1%.
(§3) U2OS were seeded at 1.5 × 10^4 cells/well in a 96-well culture plastic plate (Orange Scientific, Braine-l’Alleud, Belgium) and, after 24 h of growth, cells were exposed for additional 48 h to increasing concentrations of compounds (0.1 µM and […]) solubilized in RPMI-1640 medium. On the day of measurement, the culture medium was replaced with 0.1 mL of 3-(4,5-dimethylthiazolyl-2)-2,5-diphenyltetrazolium bromide (MTT, Sigma-Aldrich) dissolved in phosphate-buffered saline (PBS) at the concentration of 0.2 mg/mL, and samples were incubated for 2 h at 37 °C. To dissolve the blue-violet formazan salt crystals formed, 0.1 mL of isopropyl alcohol was added to each well and incubated for 20 min. The absorbance at 570 nm was measured using a multiwell plate reader (Wallac Victor2, PerkinElmer, Milano, Italia), and viability was compared with that of untreated cells, used as controls.

[2] = test system: U2OS (human osteosarcoma); test: MTT assay, cell viability; format: cell-based; details: for IC50: Homo sapiens, U2OS, after 48 h of treatment, n.a. = non active; for sensitivity of U2OS to the compound (IC50 analysis): only U2OS among tumor cell lines
Excerpt: as §1, §2, §3

[3] = test system: U2OS cell line; set-up: method as in PMID 31646829, PMID 26298721; details: ref [30],[31]; cited from earlier work
[4] = test system: acetylated histones H2/H3 and H4 in U2OS cells; test: Histone acetylation, Western blot with anti-acetyl lysine antibody; format: cell-based, human; details: 6 h, densitometry normalized on histone H1, vs control
Excerpt: To identify acetylated histones, we analyzed the nuclear cell lysates by Western blot using a 15% polyacrylamide gel electrophoresis. After electrophoresis, the proteins were transferred to a nitrocellulose membrane and then immunoblotted with an anti-acetyl lysine monoclonal antibody. […] Differences in the density of bands are thought to reflect differences in protein acetylation levels. Histone acetylation signals were quantified by densitometry and normalized on histone H1. Histones H2/H3 acetylation increased by 28% upon treatment with 6 for 6 h with no effect on H4 acetylation, whereas compound 8a induced hyperacetylation by 30% on histone H4 only.
U2OS were cultured with 5a, 6, or 8a, for 6 h, and the histone fraction was immediately extracted. Cells were harvested using 0.11% trypsin and 0.02% EDTA, washed twice with 10 mM sodium butyrate (NaBu) in PBS, and nuclei were isolated according to Amellem et al.. The nuclear pellet was suspended in 0.1 mL of ice-cold water using a Vortex mixer, and concentrated H2SO4 was added to the suspension to give a final concentration of 0.4 N. After incubation at 4 °C for 1 h, the suspension was centrifuged for 5 min at 14,000× g, and the supernatant was taken and mixed with 1 mL of acetone. After overnight incubation at −20 °C, the coagulate material was collected by microcentrifugation and air-dried, and proteins were quantified using a protein assay kit (Bio-Rad, Hercules, CA, USA). Histones were analyzed as previously described. Briefly, histones were resolved by 15% SDS-PAGE and immunoblotted with anti-acetylated lysine antibody (Cell Signaling Technology, Beverly, MA, USA); the detection of immunoreactive bands was performed with a secondary antibody conjugated with horseradish peroxidase and developed with an enhanced chemiluminescence (ECL) system, developed with the enhanced chemiluminescence system Clarity Western (Bio-Rad, Hercules, CA, USA), and quantification was done by Fluor-S Max MultiImager (Bio-Rad). Histone acetylation signals were quantified by densitometry and normalized on histone H1.

[5] = test system: U2OS cells; test: Hoechst 33,342 nuclear staining, confocal microscopy; format: cell-based, human; details: 24 h
Protocol: These effects induced by the above compounds on histone acetylation are not associated with events involved in apoptotic death.
Nuclear morphology was assayed using a specific dye Hoechst 33,342. U2OS treated cells were washed, fixed, and then stained with 1 µM Hoechst 33,342 (Sigma-Aldrich, St Louis, MO, USA) for 15 min. Samples were embedded in Mowiol and analyzed using a Nikon C1s confocal laser-scanning microscope, equipped with a Nikon PlanApo 40×, 1.4 numerical aperture (NA) oil immersion lens. Images were quantified by ImageJ software (IMAJ 1.x).

[6] = test system: U2OS cells; test: Cell-cycle assay by flow cytometry (PI fluorescence, forward scatter); format: cell-based, human; details: 24 h; for mean channel of FS distribution (nuclear size): U2OS nuclei, 35 μM of 6, 50 μM of 5a or 8a, control cells 730; for effect on cell-cycle progression: U2OS, 35 μM of compound 6, 50 μM of 5a, 50 μM of 8a
Protocol: To infer whether their effects were due to interference with cell-cycle progression, DNA profiles of cultured cells were examined by flow cytometry. […] As clear from Figure 3, the nuclei in all cell-cycle phases were affected.
For the cell-cycle assay, U2OS cells were treated for 24 h with 35 μM of compound 6, 50 μM of 5a, or 50 μM of 8a, detached with 0.11% trypsin (Sigma-Aldrich, S.Louis, MO, USA)/0.02% ethylenediaminetetraacetic acid (EDTA) (Sigma-Aldrich, S.Louis, MO, USA), washed in PBS, and centrifuged. The pellet was resuspended in 0.01% Nonidet P-40 (Sigma-Aldrich, S.Louis, MO, USA), 10 μg/mL RNase (Sigma-Aldrich, S.Louis, MO), 0.1% sodium citrate, and 50 μg/mL propidium iodide (PI) (Sigma-Aldrich, S.Louis, MO, USA), for 30 min at room temperature in the dark. PI fluorescence and forward scatter (FS) signals were analyzed using a Beckman Coulter Epics XL-MCL flow cytometer. DNA distribution in the cell cycle was analyzed by the MODFIT 5.0 software. As the signal collected by a multichannel analyzer, the mean of the FS distribution is expressed as mean channel.

[7] = test system: IGROV1 (human ovarian carcinoma); test: MTT assay, cell viability; format: cell-based; details: IGROV-1, after 48 h of treatment, n.a. = non active
Excerpt: as §1, §2, §3

[8] = test system: PC3 (human prostatic carcinoma); test: MTT assay, cell viability; format: cell-based; details: after 48 h of treatment, n.a. = non active
Excerpt: as §1, §2, §3

[9] = test system: human osteosarcoma growth; set-up: method as in PMID 24344034, PMID 30697272; details: ref [32],[33]; read-out: IC50, inhibition of human osteosarcoma growth; cited from earlier work

- melting point: 59 to 60 °C
- IC50 [1]: > 100 µM
- IC50 [2]: > 100 µM
SMILES: COC(=O)CCCCCCCC(=O)Nc1ccccn1 [4a, Methyl 9-oxo-9-(pyridin-2-ylamino)nonanoate]

- melting point: 75.5 to 77.7 °C
- IC50 [1]: > 100 µM
- IC50 [2]: > 100 µM
SMILES: COC(=O)CCCCCCCC(=O)Nc1cccnc1 [4b, Methyl 9-oxo-9-(pyridin-3-ylamino)nonanoate]

- melting point: 83 to 85 °C
- IC50 [2]: > 100 µM
SMILES: COC(=O)CCCCCCCC(=O)Nc1ccncc1 [4c, Methyl 9-oxo-9-(pyridin-4-ylamino)nonanoate]

- IC50 [2]: 50 µM
- sensitivity of U2OS to the compound (IC50 analysis) [2]: sensitive
SMILES: COC(=O)CCCCCCCC(=O)Nc1ncccn1 [5a, Methyl 9-oxo-9-(pyrimidin-2-ylamino)nonanoate]
- increase of histone H4 acetylation [4]: 22%
- increase of histones H2/H3 acetylation [4]: 89%
- nuclear morphology by Hoechst 33,342 staining [5]: dim staining of nuclei
- mean channel of FS distribution (nuclear size) [6]: 735
- effect on cell-cycle progression [6]: slight accumulation in the synthesis (S) phase

- melting point: 92 to 94.2 °C
- IC50 [2]: > 100 µM
- IC50 [7]: > 100 µM
SMILES: COC(=O)CCCCCCCC(=O)Nc1ccncn1 [5b, Methyl 9-oxo-9-(pyrimidin-4-ylamino)nonanoate]

- melting point: 78.6 to 80.2 °C
- IC50 [1]: > 100 µM
- IC50 [8]: > 100 µM
- IC50 [7]: > 100 µM
SMILES: COC(=O)CCCCCCCC(=O)Nc1cncnc1 [5c, Methyl 9-oxo-9-(pyrimidin-5-ylamino)nonanoate]

- IC50 [1]: > 100 µM
- IC50 [2]: 50 µM
- sensitivity of U2OS to the compound (IC50 analysis) [2]: sensitive
- IC50 [8]: > 100 µM
SMILES: COC(=O)CCCCCCCC(=O)n1cnc2ccccc21 [8a, Methyl 9-(1H-benzo[d]imidazol-1-yl)-9-oxononanoate]
- increase of histone H4 acetylation [4]: 30%
- nuclear morphology by Hoechst 33,342 staining [5]: dim staining of nuclei
- mean channel of FS distribution (nuclear size) [6]: 780
- effect on cell-cycle progression [6]: slight accumulation in the synthesis (S) phase

- melting point: 55.5 to 57.2 °C
- IC50 [7]: > 100 µM
SMILES: COC(=O)CCCCCCCC(=O)n1nnc2ccccc21 [8b, Methyl 9-(1H-benzo[d][1,2,3]triazol-1-yl)-9-oxononanoate]

Continued, compound first:

SMILES: O=c1[nH]cc(F)c(=O)[nH]1 [5-fluorouracile]
- IC50 [3]: 0.3 µM

SMILES: N.N.[Cl][Pt][Cl] [Cisplatin]
- IC50 [3]: 1.67 µM

SMILES: COC(=O)CCCCCCCC(=O)N(C(=O)CCCCCCCC(=O)OC)c1ncccn1 [compound 6, Dimethyl 9,9’-(pyrimidin-2-ylazanediyl)bis(9-oxononanoate)]
- increase of histone H4 acetylation [4]: no effect
- increase of histones H2/H3 acetylation [4]: 28%
- nuclear morphology by Hoechst 33,342 staining [5]: increase in nuclear size
- IC50 [1]: > 100 µM
- IC50 [2]: 35 µM
- sensitivity of U2OS to the compound (IC50 analysis) [2]: sensitive
- mean channel of FS distribution (nuclear size) [6]: 905
- effect on cell-cycle progression [6]: increase in the gap 0/gap 1 (G0/G1) fraction, with concomitant decrease in the G2/mitosis (M) phase

SMILES: COc1cccc2c1C(=O)c1c(O)c3c(c(O)c1C2=O)C[C@@](O)(C(=O)CO)C[C@@H]3O[C@H]1C[C@H](N)[C@H](O)[C@H](C)O1 [doxorubicin]
- IC50 [3]: 0.5 µM

SMILES: CCCC(=O)[O-].[Na+] [sodium butyrate]
- IC50 [9]: 5 µM

SMILES: CC(/C=C/C(=O)NO)=C\[C@@H](C)C(=O)c1ccc(N(C)C)cc1 [trichostatin A]
- IC50 [9]: 0.5 µM

Reference: article PMC7024557, “Synthesis of Novel Structural Hybrids between Aza-Heterocycles and Azelaic Acid Moiety with a Specific Activity on Osteosarcoma Cells” (Molecules, 2020)
